“And” between values parts separate entries of the source, which are not always exact repeats. Identical values can stand only once. “Also recorded” adds a separate entry of the source.
Key:
[1] = tested on: herpes labialis (herpes simplex); experiment: Treatment of herpes labialis (cold sores) in an individual; type: in vivo, human; settings: 100 mg dose upon first feeling the onset of a cold sore
Method: This example illustrates administering isomyosmine to treat herpes labialis (cold sores), a type of herpes simplex occurring on the lip. An individual who experiences periodic outbreaks of herpes labialis was administered a 100 mg dose of isomyosmine upon first feeling the onset of a cold sore.

[2] = target: T1, MAO-A (Homo sapiens, UniProt P21397); experiment: MAO-Glo luminescent assay, MAO-A inhibition; type: biochemical; settings: compared among isomyosmine, myosmine, anatabine, anabasine, nornicotine; clorgyline positive control
T1 construct: purchased
T1 sequence (P21397 1-527): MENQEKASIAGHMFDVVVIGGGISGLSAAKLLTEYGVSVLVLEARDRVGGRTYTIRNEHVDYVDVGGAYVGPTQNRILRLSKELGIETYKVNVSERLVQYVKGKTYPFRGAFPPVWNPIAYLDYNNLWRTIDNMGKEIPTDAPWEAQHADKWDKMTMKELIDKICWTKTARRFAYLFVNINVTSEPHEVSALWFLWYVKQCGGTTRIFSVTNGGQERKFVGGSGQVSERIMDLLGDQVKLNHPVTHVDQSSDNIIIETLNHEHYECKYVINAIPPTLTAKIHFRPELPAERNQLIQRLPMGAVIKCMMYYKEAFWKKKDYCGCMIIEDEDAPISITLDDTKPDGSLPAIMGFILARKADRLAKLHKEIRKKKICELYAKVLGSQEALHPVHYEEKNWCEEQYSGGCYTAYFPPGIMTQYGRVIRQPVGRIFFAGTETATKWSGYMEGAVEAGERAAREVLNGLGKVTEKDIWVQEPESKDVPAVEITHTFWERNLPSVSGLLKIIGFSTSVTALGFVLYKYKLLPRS
Excerpt: (§1) This example describes experiments for determining monoamine oxidase (MAO) inhibition for isomyosmine and other alkaloids. MAOs are enzymes located on the outer membrane of mitochondria and are involved in the catabolism of monoamine neurotransmitters. There are two well-characterized isoenzymes: MAO-A, which predominantly catabolizes serotonin and norepinephrine, and MAO-B, which preferentially catabolizes benzylamine and phenylethylamine. Dopamine and tyramine are metabolized by both isoforms.
(§2) To detect the activity of MAO, a luminescent method (MAO-Glo Assay kit, from Promega, Cat #V1401) was used. In this method, a MAO substrate (a derivative of beetle luciferin provided in the kit) is mixed with the compound to be tested (in this case, myosmine and control compounds). Then, the MAO enzymes (either A or B, purchased separately) are added to the mixture and incubated with the reaction for 1 hour at room temperature. The MAO enzymes, if not inhibited by the test compound, will convert the substrate into methyl ester luciferin. Finally, a luciferin detection reagent (provided by the kit) is added (20 minutes at room temperature) to stop the MAO reaction and convert methyl ester luciferin into D-luciferin. […] The luminescent signal is measured and recorded using a luminometer. […]

[3] = tested on: individuals experiencing high blood pressure; experiment: Treatment of individuals experiencing high blood pressure; type: in vivo, human; settings: 100 mg per day
Method: (§3) This example illustrates administering isomyosmine to treat high blood pressure. Twelve individuals experiencing high blood pressure were each administered isomyosmine at dose of 100 mg per day. […] The blood pressure of one of the individuals was measured to be 145/86 mmHg without isomyosmine in the bloodstream and was measured to be 109/59 mmHg while being treated with isomyosmine. Another of the individuals was being treated for type II diabetes at the beginning of the treatment.

[4] = tested on: individual being treated for type II diabetes; experiment: Individual with type II diabetes treated with isomyosmine; type: in vivo, human; settings: one individual, 100 mg per day, following three months of treatment; taken off existing diabetes medication
Method: as §3

[5] = target: T2, MAO-B (Homo sapiens, UniProt P27338); experiment: MAO-Glo luminescent assay, MAO-B inhibition; type: biochemical; settings: compared among isomyosmine, myosmine, anatabine, anabasine, nornicotine
T2 construct: purchased
T2 sequence (P27338 1-520): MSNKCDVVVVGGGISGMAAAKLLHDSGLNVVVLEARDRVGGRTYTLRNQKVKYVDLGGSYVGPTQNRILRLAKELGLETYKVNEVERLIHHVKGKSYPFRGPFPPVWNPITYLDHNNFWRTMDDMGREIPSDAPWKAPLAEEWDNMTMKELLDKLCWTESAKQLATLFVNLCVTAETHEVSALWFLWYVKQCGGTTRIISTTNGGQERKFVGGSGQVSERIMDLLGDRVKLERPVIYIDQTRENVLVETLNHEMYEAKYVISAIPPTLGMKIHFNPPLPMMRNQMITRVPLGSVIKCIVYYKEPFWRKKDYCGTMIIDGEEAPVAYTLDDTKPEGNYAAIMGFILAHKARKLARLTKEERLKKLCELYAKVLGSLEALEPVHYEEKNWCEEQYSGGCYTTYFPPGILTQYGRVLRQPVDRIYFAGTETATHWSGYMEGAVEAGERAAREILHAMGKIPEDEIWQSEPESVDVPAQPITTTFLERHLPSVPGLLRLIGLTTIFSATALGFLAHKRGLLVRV
Excerpt: as §1, §2

[6] = tested on: surgical incisions; experiment: Topical administration for wound healing; type: in vivo, human; settings: e.g., avoid scarring around surgical incisions
Excerpt: In another aspect, a method of treating a wound comprises administering to an individual in need thereof a pharmaceutical composition containing a therapeutically effective amount of isomyosmine or a pharmaceutically acceptable salt thereof.

[7] = tested on: stage-four cancer patient diagnosed with autoimmune amyloidosis; experiment: Treatment of a stage-four cancer patient with autoimmune amyloidosis; immunoglobulin light chain Kappa/Lambda detection in blood; type: in vivo, human; settings: for Lambda Light Chains / Free Light Chains Ratio / Kappa Light Chains: 250 mg daily; for Lambda Light Chains: initial 6.5, standard range 5.7-26.3; for Free Light Chains Ratio: initial 75.38, standard range 0.26-1.65; for Kappa Light Chains: initial 490.0, standard range 3.3-19.4
Method: This example illustrates treating a stage-four cancer patient who had been diagnosed with autoimmune amyloidosis. At the time treatment began, the individual was bedridden under hospice care and told they had only a few days to live. The individual was administered a daily dose of 250 mg isomyosmine.
The patient's blood was tested using conventional immunoglobulin light chain Kappa/Lambda detection. The immunoglobulin kappa and lambda (Ig κ/λ) in situ hybridization (ISH) system is designed for the detection of human kappa and lambda immunoglobulin light chain messenger RNA (mRNA) in tissue sections and blood and bone marrow smears. The system uses biotin-labeled oligonucleotide probes. The probe-mRNA duplex is indirectly detected using an enzyme-conjugated antibody targeting the biotin conjugate. For color development, a chromogenic substrate is added. Enzymatic reaction of the chromogenic substrate leads to the formation of a color precipitate that is visualized by light microscopy.

[8] = tested on: individuals (peripheral capillary oxygen saturation); experiment: Blood oxygen saturation (SpO2) by pulse oximetry in individuals; type: in vivo, human; settings: one hour after a single dose (50-100 mg), seven individuals
Excerpt: This example illustrates the effect of isomyosmine on normal blood oxygen saturation levels (SpO2). SpO2 refers to peripheral capillary oxygen saturation, an estimate of the amount of oxygen in the blood. More specifically, it is the percentage of oxygenated hemoglobin (hemoglobin containing oxygen) compared to the total amount of hemoglobin in the blood (oxygenated and non-oxygenated hemoglobin). SpO2 can be measured by pulse oximetry, an indirect, non-invasive method. It works by emitting and then absorbing a light wave passing through blood vessels (or capillaries) in the fingertip. A variation of the light wave passing through the finger will give the value of the SpO2 measurement because the degree of oxygen saturation causes variations in the blood's color.

C1=NC(c2cccnc2)CC1 (stereo not shown) [isomyosmine, 3-(3,4-dihydro-2H-pyrrol-2-yl)-pyridine]
outbreak of cold sore [1]: effective to prevent the outbreak of the cold sore
inhibiting the enzymatic activity of MAO-A (result in words, FIG. 3) [2]: most potent of the five; also recorded: potent inhibitor
blood pressure while being treated ([3]; one individual, 145/86 mmHg without isomyosmine in the bloodstream): 109/59
change in blood pressure during treatment ([3]; twelve individuals): reduction in blood pressure
symptoms of diabetes [4]: no symptoms of diabetes
inhibiting the activity of MAO-B (result in words, FIG. 4) [5]: most potent among the five alkaloids tested; also recorded: potent inhibitor
wound healing (result in words) [6]: dramatically improve healing
Lambda Light Chains ([7]; 3 weeks): 10.9 mg/L
Free Light Chains Ratio ([7]; 3 weeks): 55.23
Kappa Light Chains ([7]; 3 weeks): 602.0 mg/L
Lambda Light Chains ([7]; 9 weeks): 9.2 mg/L
Free Light Chains Ratio ([7]; 9 weeks): 42.83
Kappa Light Chains ([7]; 9 weeks): 394.0 mg/L
Lambda Light Chains ([7]; 12 weeks): 7.1 mg/L
Free Light Chains Ratio ([7]; 12 weeks): 29.58
Kappa Light Chains ([7]; 12 weeks): 210.0 mg/L
Lambda Light Chains ([7]; 14 weeks): 3.0 mg/L
Free Light Chains Ratio ([7]; 14 weeks): 64.33
Kappa Light Chains ([7]; 14 weeks): 193.0 mg/L
Lambda Light Chains ([7]; 17 weeks): 3.6 mg/L
Free Light Chains Ratio ([7]; 17 weeks): 28.89
Kappa Light Chains ([7]; 17 weeks): 104.0 mg/L
individual's symptoms ([7]; daily dose of 250 mg, within two weeks of treatment, able to get out of bed and walk around): remarkably improved
blood oxygenation (result in words) [8]: significant increase in blood oxygenation
Dosed SpO2 ([8]; base SpO2 94.0-97.0): 98.0 (5×) and 99.0 (2×)

Source: patent publication US11179382B2, “Methods of reversing normal aging process and extending lifespan” (MyMD Pharmaceuticals (Florida), Inc., priority 2015, dated 2021)
